The target in the assay is T1, mitochondrial calcium uniporter (MCU) (Homo sapiens, UniProt Q8NE86).
T1 sequence (Q8NE86 51-351): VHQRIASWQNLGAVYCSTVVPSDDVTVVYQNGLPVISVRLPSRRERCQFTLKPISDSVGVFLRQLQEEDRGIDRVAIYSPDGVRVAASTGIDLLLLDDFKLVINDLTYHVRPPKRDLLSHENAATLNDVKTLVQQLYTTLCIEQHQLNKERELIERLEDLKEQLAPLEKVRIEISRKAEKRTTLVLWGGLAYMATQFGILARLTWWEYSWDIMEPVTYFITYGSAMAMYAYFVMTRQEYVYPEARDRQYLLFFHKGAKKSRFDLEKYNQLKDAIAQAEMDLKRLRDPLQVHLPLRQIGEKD
In words: mitochondrial Ca2+ uptake in permeabilized HeLa cells. It counts as cell-based.

Structures can show the parent of a compound that is named as a salt.

Broadly, the EC50 is the concentration that produces a half-maximal response.

On to `CCC(C)(C)c1ccc(CC(C)CN2C[C@@H](C)O[C@@H](C)C2)cc1` (stereo partly drawn) [amorolfine, (2R,6S)-2,6-dimethyl-4-[2-methyl-3-[4-(2-methylbutan-2-yl)phenyl]propyl]morpholine;hydrochloride], for which the concentration for a half-maximal effect (EC50) stood at 86.9 µM.
